Results as given in patent US7202057B2 (Ortho-McNeil Pharmaceutical, Inc., priority 2000, dated 2007).
pKd, pKi: −log10 of the molar value.

Legend:
[1] = biological target: T1, guinea pig histamine H4 receptor (Cavia porcellus, UniProt Q91ZY3); settings: read-out: Guinea Pig Ki
[2] = biological target: T2, human histamine H4 receptor (Homo sapiens, UniProt Q9H3N8); settings: pH 4
[3] = biological target: T1, guinea pig histamine H4 receptor; settings: read-out: ^3H-histamine Kd
[4] = biological target: T2, human histamine H4 receptor

T2 sequence (Q9H3N8 whole entry): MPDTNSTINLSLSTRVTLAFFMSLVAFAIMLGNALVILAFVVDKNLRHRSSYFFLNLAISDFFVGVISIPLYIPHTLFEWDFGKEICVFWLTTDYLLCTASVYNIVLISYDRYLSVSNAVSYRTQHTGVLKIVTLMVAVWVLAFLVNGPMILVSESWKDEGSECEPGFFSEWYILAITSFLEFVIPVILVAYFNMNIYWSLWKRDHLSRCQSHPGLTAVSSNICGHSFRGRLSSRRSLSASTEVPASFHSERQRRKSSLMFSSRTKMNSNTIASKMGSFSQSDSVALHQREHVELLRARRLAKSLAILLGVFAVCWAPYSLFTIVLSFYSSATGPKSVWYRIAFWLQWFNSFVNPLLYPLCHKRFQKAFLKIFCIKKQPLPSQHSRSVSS

| Structure (SMILES) | pKi [1] | also measured |
| --- | --- | --- |
| C[C@@H](N)Cc1c[nH]cn1 [R-α-methylhistamine] | 6.31 | – |
| NCCc1cnc[nH]1 [^3H-histamine] | – | Binding affinity in words [2]: high affinity; pKd [3]: 7.70 |
| CNCCc1c[nH]cn1 [N-methylhistamine] | 6.66 | – |
| S=C(NC1CCCCC1)N1CCC(c2cnc[nH]2)CC1 [Thioperamide] | 7.08 | – |
| NC(=NCc1ccc(Cl)cc1)SCCCc1cnc[nH]1 [Clobenpropit] | 8.44 | – |
| NCCc1c[nH]cn1 [Histamine] | 7.57 | Activation of the receptor (decrease of forskolin-raised cAMP) [4]: specifically activated |
| N=C(N)SCCc1cnc[nH]1 [Imetit] | 7.52 | – |
